From patent US6458585B1, “Cytokine-free culture of dendritic cells” (Nexell Therapeutics Inc., priority 1996, dated 2002)

Tests used:
Format in all cases: cell-based, human
Bulk PBMNC [1] = assay: Concentration, viability and total cells of bulk PBMNC cultured with non-cytokine additives in PL2417; conditions: Day 7, PL2417 container, X-VIVO 15
Method: (§1) Culture of Bulk PBMNC: PBMNC cells were cultured in X-VIVO 15™ supplemented with 2 mM L- glutamine. Cultures were initiated at 5×^05 cells/ml in PL2417 gas-permeable containers (20 ml). GM-CSF and IL-4 were added to the cultures at final concentrations of 50 ng/ml and 1000 U/ml or non-cytokine additives such as Vitamin D3 at 2.5 uM, Vitamin E at 0.1%, Linoleic Acid at 5 ug/ml, or Ca++ Ionophore at 10 mM. Addition and subtraction of cells, media, and growth factors to and from PL2417 gas-permeable containers was accomplished by spiking a Sampling Site Coupler into the sample port of the container followed by use of syringes and needles. Cells were cultured in a 5% CO2, ambient O2, 37° C. humidified incubator for 7 days.
The next set of experiments evaluated only 4 of the non-cytokine additives. These 4 were determined to have the highest ability to induce DC generation from PBMNC. The 4 non-cytokine additives examined were Vitamin D3, Vitamin E, Ca^++ Ionophore, and Linoleic Acid. These additives were compared to GM-CSF/IL-4. Bulk PBMNC were initiated at 5×10^5 cells/ml in X-VIVO 15™ using PL2417 gas-permeable containers (20 ml per container).

Bulk PBMNC [2] = assay: S100+ cells in bulk PBMNC cultures with non-cytokine additives; conditions: for % S100+: Day 7; for TOTAL # OF S100+: Day 7, projected in culture; for percent of S100+ cells: day 7, average
Method: (§2) Immunocytochemical staining: PBS (phosphate buffered saline) was made by dissolving 5 PBS tablets into 1000 ml millipore water. Cytospin slides were soaked in PBS. Endogenous peroxidase activity was blocked by treating slides with hydrogen peroxide/PBS (2 ml 30% H2O2+30 ml PBS) for 10 min. Slides were rinsed with PBS one time. Non-specific binding sites were blocked by incubating with normal serum matching source of secondary antibody (i.e. if secondary antibody is biotinylated goat-anti-mouse, used normal goat serum) at room temp. for 15 min. in a humidified environment. Excess serum was shaken from slides and placed 100 ul of primary antibody on slide, making sure cells are covered with liquid and incubated in humidified environment, room temp, for one hour. Negative control slides were incubated with normal serum for this hour. Slides were rinsed 3 times with PBS. Slides were incubated with biotinylated antibody reactive against the primary antibody (i.e. if primary antibody is mouse-anti-human, use a biotinylated goat-anti-mouse antibody) for 1 hour in humidity. Slides were rinsed 3 times with PBS. Slides were incubated with streptavidin-peroxidase, 2 drops/slide, for 30 min. in humidity. Slides were rinsed 3 times with PBS.
(§3) Chromagen solution was made with 5 ml millipore water+2 drops of chromagen buffer+1 drop of concentrated chromagen+1 drop of substrate, and 4-5 drops were added to each slide. […] Slides were counterstained with hematoxylin for about 5 min, or until cell nuclei were stained purple. Cells were rinsed with tap water and allowed to air dry. Slides were covered with crystal mount and oven dried at 80 degrees for 15 min. Slides were allowed to cool, then coversliped with mounting medium.
as §1
(§4) Cytospin slide preparation, Wright-Geimsa and immunohistochemical staining of the cultured cells were conducted as described in Example 1 and 2 above. Mixed lymphocyte reactions (MLR's) were setup using T cells (responders) and dendritic cell enriched cultures (stimulators) from bulk PBMNC cultures, as described above in Example 1.
The S100 protein is a nerve cell protein that has been associated with dendritic cells. In Table 47, at day 7 of culture, the highest percent of S100+ cells was present in the GM-CSF/IL-4 culture (13%).

adherent PBMNC [3] = assay: S100 immunohistochemistry of plastic adherent cells cultured with non-cytokine additives; conditions: for percentage of S100+ cells: without GM-CSF added to additives
Method: as §2, with “Endogenous peroxidase activity was blocked by treating slides with hydrogen peroxide/PBS (2 ml 30% H2O2+30 ml PBS) for 10 min.” left out
as §3
(§5) Enrichment and Culture of Adherent Cells Using Polystyrene Tissue Culture Plates: PBMNC were resuspended in culture media (X-VIVO 15™+10% autologous serum) at 2×10^6 cells/ml. Cells were placed into 48 well polystyrene tissue culture plates […] and incubated for 2 hours in a 5% CO2, ambient O2, 37° C. humidified incubator. Non-adherent cells were removed from the plates then wells were rinsed with X-VIVO 15™ containing no serum. Cells remaining in the wells were adherent cells. These cells were cultured by adding 2 ml of X-VIVO 15™ to each well plus GM-CSF and IL-4 at final concentrations of 50 ng/ml and 1000 U/ml or the following: cAMP at 0.5 mM, dibutyryl cAMP at 0.1 mM, NaF at 0.25 mM, theophylline at 0.5 mM, PGE at 0.1 mM, Vitamin D3 at 2.5 uM, Vitamin E at 0.1%, Retinoic Acid at 10^−6 M, PMA at 1 pM, Linoleic Acid at 5 ug/ml, or Ca^++ Ionophore at 10 mM. Furthermore, cells were also cultured with the above non-cytokine additives plus GM-CSF at 50 ng/ml. Cells were cultured in a 5% CO2, ambient O2, 37° C. humidified incubator for 7 days.
as §4
(§6) Results: In the set of experiments using plastic adherent cells grown in polystyrene tissue culture plates, a Day 0 analysis of the cells was not performed. However, these cultures were analyzed for the presence of DC on days 4 and 7. Analysis perfomed were cell counts, viability via propidium iodide, morphology under Wright-Geimsa staining, and immunohistochemical staining using an anti-S100 antibody.

Bulk PBMNC [4] = assay: Morphologically identified dendritic cells in bulk PBMNC cultures with non-cytokine additives; conditions: for % DC: Day 7; for TOTAL # OF DC: Day 7, projected in culture
Method: (§7) Cytofunnels were attached to microscope slides. 50,000 to 100,000 cells were removed from each culture and resuspended in approximately 100 to 200 ul of PBS-CMF. Slides were placed in the Cytospin® centrifuge and spun at 100 rpm for 4 min. Cytofunnels were removed from the slides and the slides were air dried for 1 minute. Ten drops of Wright-Geimsa stain were placed onto each slide and allowed to fix for 1 to 2 minutes. Ten drops of water were added to each slide and allowed to sit for 2 to 4 minutes. The slides were rinsed and air dried.
(§8) Reading of Cytospin Slides: Slides were read under phase contrast microscopy, 40× and 60× oil magnification. One hundred cells were identified and characterized morphologically as either dendritic cells or non-dendritic cells (lymphocytes and monocyte, or CD34+-derived cells in those cases). Digital images were taken using a color monitor and color video printer.
as §1, §4

adherent PBMNC [5] = assay: Cell counts and viability of plastic adherent cells cultured with non-cytokine additives in polystyrene plates; design: % VIABLE: concentration or dose not given beside the values; conditions: for % VIABLE: propidium iodide
Method: Viability Determination: Prior to acquisition, 5 ul propidium iodide (PI) was added to each tube for use as a viability check. The cells were vortexed and acquired within 10 min of PI addition.
as §5, §6

adherent PBMNC [6] = assay: DC morphology (Wright-Geimsa) of plastic adherent cells cultured with non-cytokine additives
Method: as §7, §8, §5, §4, §6

Bulk PBMNC [7] = assay: Flow cytometry phenotype of bulk PBMNC cultures with non-cytokine additives; conditions: Day 7
Method: as §1
Cultured cells were phenotyped as described in Example 1 above for the following markers: […]

T cells = assay: Allogeneic MLR with bulk PBMNC cultures grown with non-cytokine additives
Method: MLR's were setup using T cells as responders and dendritic cell enriched cultures as antigen presenters. Sheep red blood cells were prepared and used to erythrocyte rosette T cells from a MNC preparation as described in “Current Protocols in Immunology”, John Wiley & Sons Inc, 1995. Vol. 2, 7.2.1-7.2.4. Erythrocyte+(E+ ) T cells were resuspended to 1×10^6 cells/ml in RPMI 1640/10% FCS. Dendritic cells were resuspended to 1×10^6 cells/ml in RPMI 1640/10% FCS and mitomycin C was added at 25 ug/ml to inhibit proliferation. The tubes were incubated at 37° C. for 30 min. then washed 3 times with PBS-CMF/1% HA. […] […] The appropriate control wells were also prepared. Plates were incubated for 4 or 5 days at 37° C.
Each well was pulsed with 1 uCi of ^3H-thymidine in RPMI 1640/10% FCS. Plates were incubated overnight at 37° C.
Plates were harvested onto glass fiber filter strips using a cell harvester. Discs were placed into scintillation vials containing scintillation cocktail and samples were counted using a beta radiation counter.
as §4
The functional capacity of cultured cells to induce T cell proliferation was measured in an allogeneic MLR. […] At the greatest ratio of 1:100, the differences in capacity to induce T cell proliferation is marginal between the GM-CSF/IL-4 cultured cells and the non-cytofine additive cultured cells.

[8] = Day 7, Cell Culture:T cell Ratio 1:1
[9] = Day 7, Cell Culture:T cell Ratio 1:10
[10] = Day 7, Cell Culture:T cell Ratio 1:100

Structure (SMILES)	TOTAL CELLS (Bulk PBMNC [1])	VIABILITY (Bulk PBMNC [1])	% S100+ (Bulk PBMNC [2])	TOTAL # OF S100+ (Bulk PBMNC [2])	percent of S100+ cells (Bulk PBMNC [2])	CELLS/ML (Bulk PBMNC [1])	% DC (Bulk PBMNC [4])	TOTAL # OF DC (Bulk PBMNC [4])	Percent of Phenotype in Culture: CD1a-PE (Bulk PBMNC [7])	Percent of Phenotype in Culture: CD14-PE (Bulk PBMNC [7])	Percent of Phenotype in Culture: CD80-PE (Bulk PBMNC [7])	Percent of Phenotype in Culture: CD86-PE (Bulk PBMNC [7])	Allogeneic MLR. Increase Over Background Proliferation (T cells; [8])	Allogeneic MLR. Increase Over Background Proliferation (T cells; [9])	Allogeneic MLR. Increase Over Background Proliferation (T cells; [10])	also measured
CCCCC/C=C\C/C=C\CCCCCCCC(=O)O [Linoleio Acid]	9.18E + 06	87.77%	8.50%	7.75E + 05	–	–	–	–	–	–	–	–	–	–	–	–
C=C1CC[C@H](O)C/C1=C/C=C1\CCC[C@]2(C)[C@@H]([C@H](C)CCCC(C)C)CC[C@@H]12 [Vitamin D3]	–	–	–	–	lowest average percent	–	–	–	–	–	–	–	–	–	–	percentages of S100+ cells (adherent PBMNC [3]; day 7, additive added to GM-CSF 50 ng/ml): greatest percentages of S100+ cells; fold fewer DC (average total number projected in culture) than GM-CSF/IL-4 cultures (Bulk PBMNC [4]; day 7): approximately 4 fold
CNc1ccc2oc(CC3OC4(CCC3C)OC(C(C)C(=O)c3ccc[nH]3)C(C)CC4C)nc2c1C(=O)O (stereo not drawn) [Ca ++ Iono]	8.29E + 06	83.72%	7.50%	6.17E + 05	–	2.22E + 06 cells/ml	–	–	–	–	–	–	–	–	–	TOTAL CELLS (adherent PBMNC [5]; Day 4, without GM-CSF): 1.69E + 05; % VIABLE (adherent PBMNC [5]; Day 4, without GM-CSF): 74.04%; TOTAL CELLS (adherent PBMNC [5]; Day 7, with GM-CSF present): 1.05E + 05; % VIABLE (adherent PBMNC [5]; Day 7, with GM-CSF present): 82.69%; % S100+ (adherent PBMNC [3]; Day 4, without GM-CSF): 17.00%; % S100+ (adherent PBMNC [3]; Day 7, with GM-CSF present): 26.50%; % DC (adherent PBMNC [6]; Day 4, without GM-CSF): 2.50%; % DC (adherent PBMNC [6]; Day 7, with GM-CSF present): 4.50%
CNc1ccc2oc(C[C@H]3O[C@@]4(CC[C@H]3C)O[C@H]([C@H](C)C(=O)c3ccc[nH]3)[C@H](C)C[C@H]4C)nc2c1C(=O)O [Ca^++ Ionophore, A23187]	–	–	–	–	equivalent average percentages	–	–	–	–	–	–	–	–	–	–	percentage of S100+ cells (adherent PBMNC [3]; day 4): 17%; percentage of S100+ cells (adherent PBMNC [3]; day 7): next highest percentages; morphologically identified DC (adherent PBMNC [6]; day 7, without GM-CSF added to additives): next highest percentages; fold fewer DC (average total number projected in culture) than GM-CSF/IL-4 cultures (Bulk PBMNC [4]; day 7): approximately 4 fold
C=C1CCC(O)CC1=CC=C1CCCC2(C)C1CCC2C(C)CCCC(C)C (stereo not drawn) [VIT D3]	8.04E + 06	84.51%	5.00%	4.16E + 05	–	2.11E + 06 cells/ml	6.50%	5.12E+05	0.10%	0.53%	2.65%	2.62%	6.9	2.7	1.4	–
Cc1c(C)c2c(c(C)c1O)CCC(C)(CCCC(C)CCCC(C)CCCC(C)C)O2 (mixture of isomers) [VIT E]	7.52E + 06	82.41%	8.00%	6.01E + 05	–	1.87E + 06 cells/ml	4.00%	2.82E+05	0.08%	0.73%	1.97%	2.75%	6.3	2.6	1.7	–
Cc1c(C)c2c(c(C)c1O)CCC(C)(CCCC(C)CCCC(C)CCCC(C)C)O2 (mixture of isomers) [Vitamin E]	–	–	–	–	equivalent average percentages	–	–	–	–	–	–	–	–	–	–	percentage of S100+ cells (adherent PBMNC [3]; day 4): 19%; average total number of morphologically identified DC projected in culture (Bulk PBMNC [4]; day 7): lowest total number
CCCCC/C=C\C/C=C\CCCCCCCC(=O)O [Linoleic Add]	–	–	–	–	–	–	–	–	0.08%	0.46%	2.61%	2.72%	–	–	–	–
CNc1ccc2oc(CC3OC4(CCC3C)OC(C(C)C(=O)c3ccc[nH]3)C(C)CC4C)nc2c1C(=O)O (stereo not drawn) [Ca ++ lono]	–	–	–	–	–	–	–	–	0.04%	0.26%	2.21%	2.32%	–	–	–	–
CNc1ccc2oc(CC3OC4(CCC3C)OC(C(C)C(=O)c3ccc[nH]3)C(C)CC4C)nc2c1C(=O)O (stereo not drawn) [Ca++ Iono]	–	–	–	–	–	–	7.00%	5.74E+05	–	–	–	–	4.8	1.8	0.9	–
